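Tested at 5 concentrations; 48 h exposure; 96-well plates; endpoints linearly interpolated, else capped at highest concentration. GI50 marks 50% less growth. TGI marks complete inhibition of growth.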
How the values were obtained:
Experiment in all cases: DTP human tumour cell line panel, 48 h
786-0 renal = system: 786-0 renal
A498 renal = system: A498 renal
A549 NSCLC = system: A549 NSCLC
ACHN renal = system: ACHN renal
BT-549 breast = system: BT-549 breast
CAKI-1 renal = system: CAKI-1 renal
CCRF-CEM leukemia = system: CCRF-CEM leukemia
COLO 205 colon = system: COLO 205 colon
DU-145 prostate = system: DU-145 prostate
EKVX NSCLC = system: EKVX NSCLC
HCC-2998 colon = system: HCC-2998 colon
HCT-116 colon = system: HCT-116 colon
HCT-15 colon = system: HCT-15 colon
HL-60(TB) leukemia = system: HL-60(TB) leukemia
HOP-62 NSCLC = system: HOP-62 NSCLC
HS 578T breast = system: HS 578T breast
HT29 colon = system: HT29 colon
IGROV1 ovarian = system: IGROV1 ovarian
K-562 leukemia = system: K-562 leukemia
KM12 colon = system: KM12 colon
LOX IMVI melanoma = system: LOX IMVI melanoma
M14 melanoma = system: M14 melanoma
MALME-3M melanoma = system: MALME-3M melanoma
MCF7 breast = system: MCF7 breast
MDA-MB-231 breast = system: MDA-MB-231 breast
MDA-MB-435 = system: MDA-MB-435
MOLT-4 leukemia = system: MOLT-4 leukemia
NCI-H226 lung = system: NCI-H226 lung
NCI-H23 lung = system: NCI-H23 lung
NCI-H460 lung = system: NCI-H460 lung
NCI-H522 lung = system: NCI-H522 lung
NCI/ADR-RES ovarian = system: NCI/ADR-RES ovarian
OVCAR-3 ovarian = system: OVCAR-3 ovarian
OVCAR-4 ovarian = system: OVCAR-4 ovarian
OVCAR-5 ovarian = system: OVCAR-5 ovarian
OVCAR-8 ovarian = system: OVCAR-8 ovarian
PC-3 prostate = system: PC-3 prostate
RPMI-8226 leukemia = system: RPMI-8226 leukemia
RXF 393 renal = system: RXF 393 renal
SF-268 CNS = system: SF-268 CNS
SF-295 CNS = system: SF-295 CNS
SF-539 CNS = system: SF-539 CNS
SK-MEL-2 melanoma = system: SK-MEL-2 melanoma
SK-MEL-28 melanoma = system: SK-MEL-28 melanoma
SK-MEL-5 melanoma = system: SK-MEL-5 melanoma
SK-OV-3 ovarian = system: SK-OV-3 ovarian
SN12C renal = system: SN12C renal
SNB-19 CNS = system: SNB-19 CNS
SNB-75 CNS = system: SNB-75 CNS
SR leukemia = system: SR leukemia
SW-620 colon = system: SW-620 colon
T-47D breast = system: T-47D breast
TK-10 renal = system: TK-10 renal
U251 CNS = system: U251 CNS
UACC-257 melanoma = system: UACC-257 melanoma
UACC-62 melanoma = system: UACC-62 melanoma
UO-31 renal = system: UO-31 renal

Clc1nc(Cl)c2ncn(C/C=C/Cn3cnc4c(Cl)nc(Cl)nc43)c2n1
GI50 (786-0 renal): 23.4 µM
TGI (786-0 renal): 48.5 µM
GI50 (A498 renal): 21.5 µM
TGI (A498 renal): 41.2 µM
GI50 (A549 NSCLC): 13.2 µM
TGI (A549 NSCLC): 32 µM
GI50 (ACHN renal): 18.2 µM
TGI (ACHN renal): 32.2 µM
GI50 (BT-549 breast): 16.7 µM
TGI (BT-549 breast): 31.3 µM
GI50 (CAKI-1 renal): 13.9 µM
TGI (CAKI-1 renal): 28.1 µM
GI50 (CCRF-CEM leukemia): 10.7 µM
TGI (CCRF-CEM leukemia): 25.3 µM
GI50 (COLO 205 colon): 15.1 µM
TGI (COLO 205 colon): 35.5 µM
GI50 (DU-145 prostate): 15.2 µM
TGI (DU-145 prostate): 28.6 µM
GI50 (EKVX NSCLC): 20.5 µM
TGI (EKVX NSCLC): 36.9 µM
GI50 (HCC-2998 colon): 16 µM
TGI (HCC-2998 colon): 31.4 µM
GI50 (HCT-116 colon): 10.7 µM
TGI (HCT-116 colon): 24.4 µM
GI50 (HCT-15 colon): 16.1 µM
TGI (HCT-15 colon): 30.2 µM
GI50 (HL-60(TB) leukemia): 17.3 µM
TGI (HL-60(TB) leukemia): > 100 µM
GI50 (HOP-62 NSCLC): 15.6 µM
TGI (HOP-62 NSCLC): 32.9 µM
GI50 (HS 578T breast): 14.6 µM
TGI (HS 578T breast): 35.1 µM
GI50 (HT29 colon): 14.7 µM
TGI (HT29 colon): 29.9 µM
GI50 (IGROV1 ovarian): 11.8 µM
TGI (IGROV1 ovarian): 25.7 µM
GI50 (K-562 leukemia): 15.5 µM
TGI (K-562 leukemia): 55.8 µM
GI50 (KM12 colon): 17.3 µM
TGI (KM12 colon): 33.9 µM
GI50 (LOX IMVI melanoma): 14.9 µM
TGI (LOX IMVI melanoma): 28.9 µM
GI50 (M14 melanoma): 21.2 µM
TGI (M14 melanoma): 39.7 µM
GI50 (MALME-3M melanoma): 31.2 µM
TGI (MALME-3M melanoma): 52.5 µM
GI50 (MCF7 breast): 6.69 µM
TGI (MCF7 breast): 21.6 µM
GI50 (MDA-MB-231 breast): 21.2 µM
TGI (MDA-MB-231 breast): 38 µM
GI50 (MDA-MB-435): 19.8 µM
TGI (MDA-MB-435): 39.4 µM
GI50 (MOLT-4 leukemia): 17 µM
TGI (MOLT-4 leukemia): 37.4 µM
GI50 (NCI-H226 lung): 22.3 µM
TGI (NCI-H226 lung): 42.9 µM
GI50 (NCI-H23 lung): 18.7 µM
TGI (NCI-H23 lung): 38 µM
GI50 (NCI-H460 lung): 20 µM
TGI (NCI-H460 lung): 40.7 µM
GI50 (NCI-H522 lung): 6.75 µM
TGI (NCI-H522 lung): 22.7 µM
GI50 (NCI/ADR-RES ovarian): 20.1 µM
TGI (NCI/ADR-RES ovarian): 44.6 µM
GI50 (OVCAR-3 ovarian): 12.2 µM
TGI (OVCAR-3 ovarian): 25.4 µM
GI50 (OVCAR-4 ovarian): 20 µM
TGI (OVCAR-4 ovarian): 34.8 µM
GI50 (OVCAR-5 ovarian): 19.5 µM
TGI (OVCAR-5 ovarian): 35.1 µM
GI50 (OVCAR-8 ovarian): 6.11 µM
TGI (OVCAR-8 ovarian): 21 µM
GI50 (PC-3 prostate): 17.5 µM
TGI (PC-3 prostate): 33.2 µM
GI50 (RPMI-8226 leukemia): 10.4 µM
TGI (RPMI-8226 leukemia): 25.8 µM
GI50 (RXF 393 renal): 2.3 µM
TGI (RXF 393 renal): 6.42 µM
GI50 (SF-268 CNS): 14.6 µM
TGI (SF-268 CNS): 30.5 µM
GI50 (SF-295 CNS): 16.8 µM
TGI (SF-295 CNS): 31.3 µM
GI50 (SF-539 CNS): 21.3 µM
TGI (SF-539 CNS): 41 µM
GI50 (SK-MEL-2 melanoma): 14.2 µM
TGI (SK-MEL-2 melanoma): 29.3 µM
GI50 (SK-MEL-28 melanoma): 17.5 µM
TGI (SK-MEL-28 melanoma): 33 µM
GI50 (SK-MEL-5 melanoma): 16.5 µM
TGI (SK-MEL-5 melanoma): 31.1 µM
GI50 (SK-OV-3 ovarian): 44.3 µM
TGI (SK-OV-3 ovarian): > 100 µM
GI50 (SN12C renal): 19.7 µM
TGI (SN12C renal): 40.7 µM
GI50 (SNB-19 CNS): 19.1 µM
TGI (SNB-19 CNS): 38 µM
GI50 (SNB-75 CNS): 19.1 µM
TGI (SNB-75 CNS): 44 µM
GI50 (SR leukemia): 14.9 µM
TGI (SR leukemia): 32.2 µM
GI50 (SW-620 colon): 8.72 µM
TGI (SW-620 colon): 22.5 µM
GI50 (T-47D breast): 11.2 µM
TGI (T-47D breast): 32 µM
GI50 (TK-10 renal): 21.7 µM
TGI (TK-10 renal): 39 µM
GI50 (U251 CNS): 16.8 µM
TGI (U251 CNS): 30.7 µM
GI50 (UACC-257 melanoma): 11 µM
TGI (UACC-257 melanoma): 27.8 µM
GI50 (UACC-62 melanoma): 17.5 µM
TGI (UACC-62 melanoma): 32.1 µM
GI50 (UO-31 renal): 17.9 µM
TGI (UO-31 renal): 34.5 µM
